Source: US20080241101A1, “Skin vitalizing composition for external use anti-aging preparation” (Shiseido Company, Ltd., priority 2002, published 2008)

Legend:
[1] = test system: artificial skin (human dermal fibroblast collagen gel with human foreskin-derived epidermal keratinocytes); experiment: Artificial skin culture with additives in the medium, H&E and type IV / type VII collagen immunostaining (Example 1); assay type: cell-based; conditions: for staining of type IV and type VII collagen: cytokine (1 ng/ml interleukin-1β, 1 ng/ml TGF-α or 100 ng/ml PDGF) combined with 10 μg/ml aprotinin and 10 μM compound A
Description: (§1) Collagen gel was obtained by preparing 10 ml of a human dermal fibroblasts (0.3-1×10^5 cell/ml)-suspended collagen solution (using I-AC collagen manufactured by Koken Co., Ltd.) on ice, followed by gelling the collagen in a 60 mm Petri dish at 37° C. The gel was then peeled from the bottom of the dish, the collagen gel was placed on metal, and a glass ring (12 mm inner diameter) was placed over the gel. A 0.4 ml portion of a human foreskin-derived epidermal keratinocyte (1×10^6/ml) suspension (KGM-DMEM (1:1) mixed medium containing 5% fetal bovine serum) was poured into the glass ring while avoiding leakage. The keratinocytes were allowed to adhere in a CO2 incubator overnight, and the ring was removed on the following day. The medium was filled in up to the border of the epidermal layer, and culturing was continued while exposing the epidermal layer to the air, to prepare a multilayered skin model with epidermis having a horny layer.
From the 4th day after seeding the epidermal cells, the medium was replaced with medium containing (1) no compound (−compound A), (2) 10 uM of compound A (+compound A), (3) 10 μM of compound A and 10 μg/ml of aprotinin (+compound A+aprotinin), (4) 10 μM of compound A and 1 ng/ml of interleukin-1β (+compound A+IL-1), (5) 10 μM of compound A, 1 ng/ml of interleukin-1β and 10 μg/ml of aprotinin (+compound A+IL-1+aprotinin), (6) 10 μM of compound A and 1 ng/ml of TFG-α (+compound A+TGFα), (7) 10 μM of compound A, 1 ng/ml of TGF-α and 10 μg/ml aprotinin (+compound A, +TGFα+aprotinin), (8) 10 μM of compound A and 100 ng/ml PDGF (+compound A+PDGF) and (9) 10 μm of compound A, 100 ng/ml PDGF and 10 μg/ml of aprotinin (+compound A+PDGF +aprotinin), and every 2-3 days thereafter, the medium was exchanged with a medium containing the same types and same concentrations of […], extracellular matrix production accelerator (cytokines) and serine protease inhibitor, after which culturing was performed for 2 weeks.
The formed artificial skin was stained with hematoxylin and eosin (H&E) and immunostaining (using anti-type IV collagen antibody and anti-type VII collagen antibody).

[2] = test system: artificial skin basement membrane; experiment: Transmission electron microscopy of basement membrane structure directly under the epidermis of artificial skin (Example 1); assay type: cell-based, human
Description: as §1, with “layer. […]” for “layer.”

[3] = cytokine (1 ng/ml interleukin-1β, 1 ng/ml TGF-α or 100 ng/ml PDGF) together with 10 μM compound A

Compound | staining of type IV and type VII collagen [1] | staining of type VII collagen [1, 3] | other results
aprotinin | – | – | staining of type VII collagen ([1]; 10 μg/ml aprotinin added in addition to 10 μM compound A, 2 weeks culture): further increased; basement membrane structure directly under the epidermis (transmission electron microscope) ([2]; 10 μg/ml aprotinin added with 10 μM compound A): increased the electron density and accentuated the continuity of the basement membrane
transforming growth factor-α (TGF-α): matrix protein production-increasing cytokine | clearly concentrated directly under the basal keratinocytes, giving a sharp stained image | particularly accentuated | –
COc1ccc(S(=O)(=O)N(Cc2cccnc2)C(C(=O)NO)C(C)C)cc1.Cl (centres unmarked) [compound A, reference compound] | – | – | staining of type VII collagen directly under the basal keratinocytes ([1]; 10 μM compound A alone in medium, 2 weeks culture, versus no-addition control): weak but definite staining of type VII collagen; basement membrane structure directly under the epidermis (transmission electron microscope) ([2]; 10 μM compound A alone): induced formation of the basement membrane
interleukin 1 (IL-1): matrix protein production-increasing cytokine, interleukin-1β | clearly concentrated directly under the basal keratinocytes, giving a sharp stained image | particularly accentuated | –
